#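 Abbreviation: GI50, concentration required for 50% inhibition of growth. TGI marks complete inhibition of growth.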
# Tests used:
# Test in all cases: NCI-60 cell line screen, 384-well format
# HOP-62 NSCLC = system: HOP-62 NSCLC
# SF-295 CNS = system: SF-295 CNS
# SN12C renal = system: SN12C renal
# SK-MEL-5 melanoma = system: SK-MEL-5 melanoma
# UO-31 renal = system: UO-31 renal
# MALME-3M melanoma = system: MALME-3M melanoma
# EKVX NSCLC = system: EKVX NSCLC
# IGROV1 ovarian = system: IGROV1 ovarian
# MOLT-4 leukemia = system: MOLT-4 leukemia
# MDA-MB-468 breast = system: MDA-MB-468 breast
# A498 renal = system: A498 renal
# MDA-MB-435 melanoma = system: MDA-MB-435 melanoma
# BT-549 breast = system: BT-549 breast
# HS 578T breast = system: HS 578T breast
# PC-3 prostate = system: PC-3 prostate
# RPMI-8226 leukemia = system: RPMI-8226 leukemia
# HCT-15 colon = system: HCT-15 colon
# SW-620 colon = system: SW-620 colon
# NCI-H226 lung = system: NCI-H226 lung
# LOX IMVI melanoma = system: LOX IMVI melanoma
# HOP-92 NSCLC = system: HOP-92 NSCLC
# UACC-257 melanoma = system: UACC-257 melanoma
# HCT-116 colon = system: HCT-116 colon
# NCI-H460 NSCLC = system: NCI-H460 NSCLC
# TK-10 renal = system: TK-10 renal
# A549 NSCLC = system: A549 NSCLC
# SK-MEL-28 melanoma = system: SK-MEL-28 melanoma
# SNB-19 CNS = system: SNB-19 CNS
# SF-268 CNS = system: SF-268 CNS
# DU-145 prostate = system: DU-145 prostate
# OVCAR-8 ovarian = system: OVCAR-8 ovarian
# MDA-MB-231 breast = system: MDA-MB-231 breast
# 786-0 renal = system: 786-0 renal
# SF-539 CNS = system: SF-539 CNS
# K-562 leukemia = system: K-562 leukemia
# NCI-H522 lung = system: NCI-H522 lung
# SR leukemia = system: SR leukemia
# KM12 colon = system: KM12 colon
# MCF7 breast = system: MCF7 breast
# HL-60(TB) leukemia = system: HL-60(TB) leukemia
# OVCAR-4 ovarian = system: OVCAR-4 ovarian
# RXF 393 renal = system: RXF 393 renal
# T-47D breast = system: T-47D breast
# UACC-62 melanoma = system: UACC-62 melanoma
# COLO 205 colon = system: COLO 205 colon
# U251 glioblastoma = system: U251 glioblastoma
# CCRF-CEM leukemia = system: CCRF-CEM leukemia
# NCI-H23 lung = system: NCI-H23 lung
# ACHN renal = system: ACHN renal
# HCC-2998 colon = system: HCC-2998 colon
# CAKI-1 renal = system: CAKI-1 renal
# NCI/ADR-RES ovarian = system: NCI/ADR-RES ovarian
# SK-OV-3 ovarian = system: SK-OV-3 ovarian
# HT29 colon = system: HT29 colon
# NCI-H322M lung = system: NCI-H322M lung
# SNB-75 CNS = system: SNB-75 CNS
# OVCAR-3 ovarian = system: OVCAR-3 ovarian
# M14 melanoma = system: M14 melanoma
smiles,measurement,setting,value
Cc1cc(O)c(-c2ccc([C@@H](C)CN(C)C)cc2)c2c1[nH]c(=O)c1sccc12,GI50,HOP-62 NSCLC,206 nM
same,TGI,HOP-62 NSCLC,401 nM
same,GI50,SF-295 CNS,1810 nM
same,TGI,SF-295 CNS,3680 nM
same,GI50,SN12C renal,224 nM
same,TGI,SN12C renal,571 nM
same,GI50,SK-MEL-5 melanoma,233 nM
same,TGI,SK-MEL-5 melanoma,547 nM
same,GI50,UO-31 renal,266 nM
same,TGI,UO-31 renal,663 nM
same,GI50,MALME-3M melanoma,1000 nM
same,TGI,MALME-3M melanoma,2190 nM
same,GI50,EKVX NSCLC,451 nM
same,TGI,EKVX NSCLC,1500 nM
same,GI50,IGROV1 ovarian,362 nM
same,TGI,IGROV1 ovarian,1270 nM
same,GI50,MOLT-4 leukemia,156 nM
same,TGI,MOLT-4 leukemia,295 nM
same,GI50,MDA-MB-468 breast,27.8 nM
same,TGI,MDA-MB-468 breast,67.1 nM
same,GI50,A498 renal,160 nM
same,TGI,A498 renal,319 nM
same,GI50,MDA-MB-435 melanoma,444 nM
same,TGI,MDA-MB-435 melanoma,1430 nM
same,GI50,BT-549 breast,192 nM
same,TGI,BT-549 breast,451 nM
same,GI50,HS 578T breast,129 nM
same,TGI,HS 578T breast,289 nM
same,GI50,PC-3 prostate,286 nM
same,TGI,PC-3 prostate,757 nM
same,GI50,RPMI-8226 leukemia,36.8 nM
same,TGI,RPMI-8226 leukemia,108 nM
same,GI50,HCT-15 colon,378 nM
same,TGI,HCT-15 colon,1390 nM
same,GI50,SW-620 colon,443 nM
same,TGI,SW-620 colon,1260 nM
same,GI50,NCI-H226 lung,285 nM
same,TGI,NCI-H226 lung,662 nM
same,GI50,LOX IMVI melanoma,253 nM
same,TGI,LOX IMVI melanoma,580 nM
same,GI50,HOP-92 NSCLC,357 nM
same,TGI,HOP-92 NSCLC,2120 nM
same,GI50,UACC-257 melanoma,831 nM
same,TGI,UACC-257 melanoma,2090 nM
same,GI50,HCT-116 colon,200 nM
same,TGI,HCT-116 colon,383 nM
same,GI50,NCI-H460 NSCLC,186 nM
same,TGI,NCI-H460 NSCLC,341 nM
same,GI50,TK-10 renal,265 nM
same,TGI,TK-10 renal,713 nM
same,GI50,A549 NSCLC,225 nM
same,TGI,A549 NSCLC,482 nM
same,GI50,SK-MEL-28 melanoma,284 nM
same,TGI,SK-MEL-28 melanoma,1610 nM
same,GI50,SNB-19 CNS,335 nM
same,TGI,SNB-19 CNS,1110 nM
same,GI50,SF-268 CNS,338 nM
same,TGI,SF-268 CNS,1420 nM
same,GI50,DU-145 prostate,279 nM
same,TGI,DU-145 prostate,706 nM
same,GI50,OVCAR-8 ovarian,223 nM
same,TGI,OVCAR-8 ovarian,447 nM
same,GI50,MDA-MB-231 breast,265 nM
same,TGI,MDA-MB-231 breast,682 nM
same,GI50,786-0 renal,50 nM
same,TGI,786-0 renal,193 nM
same,GI50,SF-539 CNS,133 nM
same,TGI,SF-539 CNS,369 nM
same,GI50,K-562 leukemia,295 nM
same,TGI,K-562 leukemia,746 nM
same,GI50,NCI-H522 lung,180 nM
same,TGI,NCI-H522 lung,350 nM
same,GI50,SR leukemia,75.7 nM
same,TGI,SR leukemia,179 nM
same,GI50,KM12 colon,286 nM
same,TGI,KM12 colon,850 nM
same,GI50,MCF7 breast,63.6 nM
same,TGI,MCF7 breast,217 nM
same,GI50,HL-60(TB) leukemia,19.7 nM
same,TGI,HL-60(TB) leukemia,37.5 nM
same,GI50,OVCAR-4 ovarian,199 nM
same,TGI,OVCAR-4 ovarian,400 nM
same,GI50,RXF 393 renal,14.6 nM
same,TGI,RXF 393 renal,31.7 nM
same,GI50,T-47D breast,1200 nM
same,TGI,T-47D breast,5800 nM
same,GI50,UACC-62 melanoma,283 nM
same,TGI,UACC-62 melanoma,888 nM
same,GI50,COLO 205 colon,1990 nM
same,TGI,COLO 205 colon,4050 nM
same,GI50,U251 glioblastoma,173 nM
same,TGI,U251 glioblastoma,1100 nM
same,GI50,CCRF-CEM leukemia,199 nM
same,TGI,CCRF-CEM leukemia,399 nM
same,GI50,NCI-H23 lung,212 nM
same,TGI,NCI-H23 lung,446 nM
same,GI50,ACHN renal,357 nM
same,TGI,ACHN renal,1240 nM
same,GI50,HCC-2998 colon,197 nM
same,TGI,HCC-2998 colon,467 nM
same,GI50,CAKI-1 renal,292 nM
same,TGI,CAKI-1 renal,996 nM
same,GI50,NCI/ADR-RES ovarian,2060 nM
same,TGI,NCI/ADR-RES ovarian,4650 nM
same,GI50,SK-OV-3 ovarian,171 nM
same,TGI,SK-OV-3 ovarian,410 nM
same,GI50,HT29 colon,1780 nM
same,TGI,HT29 colon,3270 nM
same,GI50,NCI-H322M lung,411 nM
same,TGI,NCI-H322M lung,1210 nM
same,GI50,SNB-75 CNS,159 nM
same,TGI,SNB-75 CNS,753 nM
same,GI50,OVCAR-3 ovarian,189 nM
same,TGI,OVCAR-3 ovarian,381 nM
same,GI50,M14 melanoma,413 nM
same,TGI,M14 melanoma,1250 nM

# From PubChem BioAssay (NCI)
